Results as given in US9688653B2, “Ethoxyphenyl thienyl compounds and methods for the treatment of bacterial infections” (Duke University, priority 2013, dated 2017).

Key:
E. coli K1 strain UTI89 [1] = test: Secondary assay 2: T7 phage-mediated lysis assay; format: cell-based, Escherichia coli; settings: read-out: T7 phage IC50
From the text: D. Secondary Assay 2: Screening for Inhibitors of Bacterial Capsule Biogenesis—T7 Lysis Inhibition
Purpose: This secondary assay measures the compound mechanistic specificity for inhibition of bacterial capsule formation and excludes inhibitors of phage replication using a different bacteriophage (T7). In this assay, an increase in phage-induced lysis correlates to a decrease in capsule formation.
Purpose: This secondary assay measures the compound mechanistic specificity for inhibition of bacterial capsule formation using a different bacterial phage (T7). In this assay, an increase in phage-induced lysis correlates to a decrease in capsule formation.
Assay Description: T7 phage-mediated lysis assay: This assay determined if the mechanism of action of the compound is inhibition of phage infectivity or replication. The T7 phage has a nearly identical genome to K1F, without encoding an endosialidase. Its cycle of replication is similar to that of K1F as well. However, T7 entry into E. coli is inhibited by K capsules. This secondary assay was conducted in the 96 well plate format. […] Compounds were added in quadruplicate to plates in a concentration dependent manner in the range of 100-0.39 μM, followed by addition of 100 μL of bacterial culture. 1% DMSO (final well concentration) was included. The plates were tape sealed and shaken vigorously for 1.5 hr. An initial OD600 reading was measured to identify compounds that cause growth retardation or bacterial killing in the absence of phage. Next, T7 phage (5 μL) was added to all of the test wells. The plates were resealed and shaken vigorously at 37° C., and measurements of OD600 for phage-mediated lysis were taken after 3 hr. True inhibitors of capsule yielded bacteria that were susceptible to T7 phage and lysed within 2 hr of the addition of phage. […] The positive control drug C7 (100 μM final well concentration) was used in this screen.
T7 phage counter assay. This secondary assay was performed as previously described and was used to distinguish compounds with phage inhibitory effects from true polysaccharide capsule inhibitors. […] Thus, the presence of a capsule inhibits T7-mediated lysis. In this assay, an increase in phage-induced lysis correlates to a decrease in capsule formation. True inhibitors of capsule yielded bacteria that were susceptible to T7 phage and lysed within 2 hr of the addition of phage. […] The positive control molecule C7 (100 μM final well concentration) was used in this screen.

E. coli K1 strain UTI89 [2] = test: microbe, parasite or virus in culture
From the text: The ability of the […] to bind to bacterial capsule, infect, and lyse E. coli UT189 was used as the primary assay to identify the effects of screened compounds on bacterial capsule formation. The phenotypic end-point assay measured the fluorescence generated by cellular processing of Alamar Blue as a direct indicator of cell viability. A total of […] compounds were screened using the primary assay. […] Hits were further evaluated using […] secondary assays for alternative measurement of compound-induced reduction in bacterial capsule formation (secondary assays 1 and 2) and specificity (secondary assays 3 and 4). Confirmed actives with an SI>5 were further investigated and subjected to chemical optimization, followed by secondary assay evaluation. Secondary assays more closely characterized the ability of the compounds to reduce bacterial capsule formation and can be used to examine the mechanism of action of the compounds. The combination of primary assay (to measure capsule reduction), counter assay (for general eukaryotic cell toxicity) and secondary assay (to measure reduction in capsule formation and specificity) were combined to allow a determination of probe efficacy, selectivity, and specificity.
A. Primary Assay: Screening for Inhibitors of Bacterial Capsule Biogenesis.
Primary assay: An end-point assay to measure the amount of K1 phage-induced bacterial cell lysis was employed to determine the compound effect on capsule biogenesis. K1 bacteriophage specifically binds the bacterial capsule during the initial stages of infection. Bacteria without capsule cannot be infected and lysed by the bacteriophage. […] A total of 338,740 compounds were screened at 100 μM in the primary screen Inhibition of phage lysis was calculated relative to the mean of the bacterial (positive) control on each microtiter plate. […] For calculation of S/B/Z value, and CV, the following formulae (in which SD stands for standard deviation) were used: S/B=mean signal/mean background; Z=1-3SD of sample+3SD of control mean of sample−mean of control; % CV=(SD mean signal/mean signal)×100.
IC50 values were calculated using a 4 parameter Levenburg-Marquardt algorithm, with the maximum and minimum locked at 0 and 100 respectively.
Primary assay: The primary assay was conducted in the 1,536 well plate format. Bacterial cultures of E. coli K1 strain UTI89 (cystitis isolate) and isogenic capsule mutant strains (as controls for phage infection) were grown and prepared at the screening center immediately prior to use. Overnight starting cultures of UTI89 were grown at 37° C., and inoculated into 1 liter of LB (starting OD600˜0.03), which was sufficient for screening 40 plates (including ˜10% waste) and ˜40,000 compounds as single points.
Control wells contained UTI89 (wt K1) with 0.5% DMSO as a simulated positive control; UTI89 with 0.5% DMSO and tetracycline for a negative growth control; and media plus vehicle control. 50 mL of LB Broth was inoculated with stock 150 μL E. coli UT189 and grown overnight at 37° C. The next day, cultures were diluted 1:75 in 1 L of LB Broth containing 0.5% DMSO. 3 μL of this culture was added to each plate well, and plates were incubated, inverted, at 37° C. for 2 hr. The K1F bacteriophage stock was diluted 1:8 in LB Broth containing 0.5% DMSO, and 1.5 μL of diluted phage (or media only) was added to the pre-plated test compound wells and appropriate control wells. The plates were centrifuged briefly, and then were incubated, inverted, at 37° C. for an additional 2 hr. Afterward, Alamar Blue reagent (Invitrogen, #DAL1100) was diluted 1:2 with LB broth and 1 μL was added to each plate well.

[3] = Cytotoxicity counterscreen, CellTiter Glo, 72 hr; format: cell-based, human; settings: human, bladder carcinoma 5637 cells (ATCC HTB-9), five probe analogues
Description: (§1) B. Counterscreen: Cytotoxicity Screening for Potential Inhibitors of Bacterial Capsule Biogenesis.
(§2) Purpose: This cell-based assay measures the cytotoxicity of compounds in bladder carcinoma 5637 cells using luminescent cell viability assay readout.
(§3) Cytotoxicity assay: The cytotoxicity assay was performed as described in Section 6: Appendix. Hit cytotoxicity and the 50% toxic concentration (CC50) was determined and compared to the IC50 to calculate the selectivity index.
(§4) Assay Description: Cytotoxicity: Dose response testing (dose range=300-0.58 μM) established the hit cytotoxicity data. Compounds were plated in 384-well microplates in a stacked dose response format using the same doses used in the efficacy dose response. Bladder carcinoma 5637 cells were added to the compounds, and 72 hr later cell viability was measured using CellTiter Glo (38). Hit cytotoxicity and the 50% toxic concentration (TC50) was determined and compared to the IC50 to calculate the therapeutic index. Test compounds are serially diluted in a plate to plate matrix or stacked plate matrix. All 320 compounds in a source plate are diluted together resulting in a 10 point dose response dilution series. It is visualized as a serial dilution series proceeding vertically through a stack of plates with the high dose plate on top and the low dose plate on the bottom.
(§5) Control Drug: Hyamine was used as a positive cytotoxic control. All wells contained 0.5% DMSO.
(§6) Preparation of Bladder carcinoma 5637 cells: Cells are harvested and resuspended to 80,000 cells per ml in Complete DMEM/F12®.
(§7) Endpoint Read: Following the three day incubation period, the assay plates were equilibrated to room temperature for 30 min and an equal volume (30 μL) of Cell Titer-Glo® reagent (Promega Inc.) is added to each well using a WellMate™ (Matrix, Hudson, N.H.) and plates are incubated for an additional 10 min at room temperature. At the end of the incubation, luminescence is measured using a Perkin Elmer Envision™ multi-label reader (PerkinElmer, Wellesley, Mass.) with an integration time of 0.1 s.
(§8) Cytotoxicity. Testing was performed essentially as previously described. Concentration-response testing was performed over a range 0.58-300 μM in a […] well plate format. Bladder carcinoma 5637 cells (ATCC HTB-9) were added to the compounds, and 72 hrs later cell viability was measured using CellTiter Glo (Promega). The 50% toxic concentration (TC50) was determined and compared to the IC50 to calculate the therapeutic index. Hyamine was used as a positive cytotoxic control. All wells contained 0.5% DMSO.

[4] = tested on: Bladder carcinoma 5637 cells; test: Cytotoxicity counterscreen, CellTiter Glo, 72 hr; format: cell-based, human
Description: as §1, §2, §3, §4, §5, §6, §7, §8

[5] = Escherichia coli, five probe analogues
[6] = Escherichia coli, read-out: K1 phage IC50, five probe analogues
[7] = second round of synthetic analogues, n = 2
[8] = read-out: K1 phage IC50, second round of synthetic analogues, n = 3

Structure (SMILES)	IC50 (E. coli K1 strain UTI89 [1]; [5])	IC50 (E. coli K1 strain UTI89 [2]; [6])	Selectivity (E. coli K1 strain UTI89 [2]; five probe analogues)	IC50 at 72 h [3]	IC50 (E. coli K1 strain UTI89 [1]; [7])	IC50 (E. coli K1 strain UTI89 [2]; [8])	IC50 [4]
CCOc1ccc(-c2cc(NC(=O)c3ccc(Br)s3)c(C(=O)O)s2)cc1 [CID 53470415, 3-(5-Bromothiophene-2-carboxamido)-5-(4-ethoxyphenyl)thiophene-2-carboxylic acid]	3.33 µM	17 ± 4.49 µM	2.92	49.7 ± 6.49 µM	–	–	–
O=C(Nc1cc(-c2ccc(C(F)(F)F)cc2)sc1C(=O)O)c1cc2ccccc2o1 [CID 53470417, 3-(Benzofuran-2-carboxamido)-5-(4-(trifluoromethyl)phenyl)thiophene-2-carboxylic acid]	14.1 µM	> 100 µM	–	72.1 µM	–	–	–
O=C(O)c1sc(-c2ccc(OCC(F)(F)F)cc2)cc1NC(=O)c1c(F)cccc1F [compound 56643002]	–	–	–	–	< 0.625 µM	2.86 µM	75.2 µM
O=C(Nc1cc(-c2ccc(OCC(F)(F)F)cc2)sc1C(=O)O)c1ccc(Br)o1 [compound 56643003]	–	–	–	–	0.625 µM	4.9 µM	50 µM
CCCc1ccc(-c2cc(NC(=O)c3cc(Br)c(Br)o3)c(C(=O)O)s2)cc1 [compound 56643005]	–	–	–	–	< 5 µM	6.78 µM	41 µM
CCOc1ccc(-c2cc(NC(=O)c3c(F)cc(F)cc3F)c(C(=O)O)s2)cc1 [compound 56643006]	–	–	–	–	< 5 µM	20 µM	76.6 µM
CCCCOc1ccc(-c2cc(NC(=O)c3c(F)cccc3F)c(C(=O)O)s2)cc1 [compound 56643007]	–	–	–	–	< 0.625 µM	< 0.78 µM	42.6 µM
O=C(Nc1cc(-c2ccc(OCCCC(F)(F)F)cc2)sc1C(=O)O)c1ccc(Br)o1 [compound 56643008]	–	–	–	–	< 2.5 µM	1.78 µM	38.7 µM
O=C(Nc1cc(-c2ccc(OCCCC(F)(F)F)cc2)sc1C(=O)O)c1cc(Br)c(Br)o1 [compound 56643009]	–	–	–	–	< 2.5 µM	> 100 µM	251 µM
O=C(O)c1sc(-c2ccc(OCCC(F)(F)F)cc2)cc1NC(=O)c1c(F)cc(F)cc1F [compound 56643010]	–	–	–	–	< 0.625 µM	3.11 µM	63.6 µM
CCCc1ccc(-c2cc(NC(=O)c3c(F)cc(F)cc3F)c(C(=O)O)s2)cc1 [compound 56643011]	–	–	–	–	2.5 to 5 µM	15.9 µM	69.9 µM
